Among the data in ChEMBL document CHEMBL3507680, “University of Dundee, Gates Library screen for HepG2 cell viability” are cytotoxicity values, retold here.

The data set is described as follows: Human HepG2 cell viability assay in 384 well format. It counts as toxicity, cell-based. Also on record: dose 125 nL, time 70.5 hour; cytotoxicity at 70.5 h: concentration not given beside the values. The note with it: HepG2 cells, read-out: Inhibition.
For `Cc1cc(CNc2cc(Cl)ccc2Cl)no1`, the cytotoxicity at 70.5 h was -14.1%.

Regarding `COCCN(Cc1ccc(C)o1)C(=O)Nc1ncc(C)s1`, the cytotoxicity at 70.5 h is -8.73%.

In the case of `CC(C)=CCN1CCN(Cc2ncc[nH]2)[C@H]2CS(=O)(=O)C[C@H]21`, the cytotoxicity at 70.5 h was -4.55%.

For the molecule `CCn1cnnc1C1CCN(C(=O)c2cnc3ccccc3n2)CC1`, the cytotoxicity at 70.5 h was -16.4%.

Take `Cc1noc(C)c1CCc1nc(C2CCOC2)no1` (stereo unspecified): the cytotoxicity at 70.5 h is -11.1%.

With `CCC1c2ccsc2CCN1C(=O)NCc1cc(C)on1` (stereo unspecified), the cytotoxicity at 70.5 h is -4.73%.

Regarding `Cn1ncc2c1NC(=O)CSC2c1ccc2c(c1)OCO2` (stereo unspecified), the cytotoxicity at 70.5 h stood at 10.3%.

For `Cn1ncc(N2CCOC(CCNC(=O)NC(C)(C)C)C2)cc1=O` (stereo unspecified), the cytotoxicity at 70.5 h came to 19.2%.

Consider `Cn1cc(CCN2CCOC(CNc3cccnn3)C2)cn1` (stereo unspecified), for which the cytotoxicity at 70.5 h was determined as 21.9%.

As to `O=C(CCCc1nnc(-c2ccccc2)o1)N1CCC1`, the cytotoxicity at 70.5 h is -14.2%.

Take `CCn1cnnc1C1CCN(C(=O)c2cnc(C)s2)CC1`: the cytotoxicity at 70.5 h is -12.3%.

In the case of `CN(C)CC(=O)N1CCc2onc(Cn3cccn3)c2C1`, the cytotoxicity at 70.5 h was -9.72%.

Consider `O=C(C1CCOCC1)N1C[C@H]2CC[C@@H]1CN(Cc1ccncc1)C2`, for which the cytotoxicity at 70.5 h is -6.05%.

As for `CC(C)CCC(=O)N1CCCC2(CCN(Cc3ccccc3C#N)C2)C1` (stereo unspecified), the cytotoxicity at 70.5 h is -5.13%.

Consider `Cc1cnn(CCNCC(O)c2cccc(Br)c2)c1` (stereo unspecified), for which the cytotoxicity at 70.5 h was -8.97%.

Regarding `O=C(NCC1CCCO1)N1CCN(Cc2ccc3c(c2)CCO3)CC1` (stereo unspecified), the cytotoxicity at 70.5 h is -9.76%.

As for `C/C=C(\C)CN(CCN1CCOCC1)Cc1ccco1`, the cytotoxicity at 70.5 h was -8.08%.

Regarding `Cc1nc(CN(C)CC2CCCN2c2cccnn2)nc2ccccc12` (stereo unspecified), the cytotoxicity at 70.5 h is -5.19%.

Take `CC1CCN(C(=O)[C@@H]2C[C@H]3OCC[C@H]3N(Cc3ccoc3)C2)CC1`: the cytotoxicity at 70.5 h was -2.6%.

As to `CC(C)c1nc(C2CCCN2Cc2nnc(C3CCC3)o2)no1` (stereo unspecified), the cytotoxicity at 70.5 h amounted to 14.8%.

Regarding `CCn1nc(CC(C)C)cc1C(=O)NCC(F)(F)F`, the cytotoxicity at 70.5 h is 12.8%.

For `O=c1c2cnc(N3CCCCC3)nc2ccn1-c1ccccc1`, the cytotoxicity at 70.5 h came to 19%.

Consider `CN(C)C(=O)CN1CCN(c2ncccn2)[C@@H]2CS(=O)(=O)C[C@@H]21`, for which the cytotoxicity at 70.5 h was -3.2%.

With `COc1nc2c(cc1C(=O)N1CCCC1c1ccccn1)CCC2` (stereo unspecified), the cytotoxicity at 70.5 h came to 1.54%.

Turning to `CC(=O)N1CCCC(c2ccnc(N(C)C)n2)C1` (stereo unspecified), the cytotoxicity at 70.5 h is -12.5%.

Regarding `O=C(NC1CCN(C2CC2)CC1)c1cc(Cl)ccc1-n1cnnn1`, the cytotoxicity at 70.5 h came to 8.23%.

With `CN1CCC(c2cncc(-c3cccc(Cl)c3)n2)CC1`, the cytotoxicity at 70.5 h was -2.71%.

Turning to `CN(C)[C@H]1CCCCN(C(=O)c2cccc(N3CCS(=O)(=O)CC3)c2)C1`, the cytotoxicity at 70.5 h is -8.16%.

Take `CC(C)(C)CC(=O)NC(C)(C(N)=O)c1cccc(Cl)c1` (stereo unspecified): the cytotoxicity at 70.5 h amounted to 17.3%.

With `CS(=O)(=O)c1ccc(C(=O)N2CCCC(n3cncn3)C2)o1` (stereo unspecified), the cytotoxicity at 70.5 h is 21.1%.

As for `CCNS(=O)(=O)c1ccc(C)c(C(=O)N(C)Cc2ccco2)c1`, the cytotoxicity at 70.5 h was -5.04%.

On to `O=C(NCCn1ccnc1)C1(c2ccc3c(c2)OCCO3)CCCC1`, for which the cytotoxicity at 70.5 h is -12%.

As for `CC(=O)Nc1nc(CN2CCn3c(C)nnc3C2)cs1`, the cytotoxicity at 70.5 h is -2.82%.

As to `CN(C)c1ncc(I)c(C2CCCCN2C)n1` (stereo unspecified), the cytotoxicity at 70.5 h was -3.55%.

On to `CC(O)CCN(C)S(=O)(=O)Cc1ccc(Br)cc1` (stereo unspecified), for which the cytotoxicity at 70.5 h came to 23.3%.

In the case of `Nc1cc(C(=O)N2CCOC(Cc3cccc(C(F)(F)F)c3)C2)ccn1` (stereo unspecified), the cytotoxicity at 70.5 h was -7.49%.

On to `Cc1nc(C)n(CC2CCCCN2Cc2nnc(C3CC3)o2)n1` (stereo unspecified), for which the cytotoxicity at 70.5 h was 0.151%.

On to `CCc1ccc(C(=O)N2CCC(O)(CN3CCOCC3)C(C)(C)C2)[nH]1` (stereo unspecified), for which the cytotoxicity at 70.5 h was -9.84%.

As to `O=C(O)CN1CCC(c2ccccc2)CC1`, the cytotoxicity at 70.5 h was -3.19%.

As to `COCCN1C(=O)C[C@H]2[C@H]1CCN2Cc1ccccc1`, the cytotoxicity at 70.5 h is -4.06%.

On to `Cn1ncc2c1CN(Cc1cccnc1)CC2COCC1CC1` (stereo unspecified), for which the cytotoxicity at 70.5 h is -2.46%.

As to `O=C(Cc1ccsc1)N1CCC(c2noc(-c3cccnc3)n2)CC1`, the cytotoxicity at 70.5 h was -2.37%.

For `O=C(NCC1CC1)C1CSCN1S(=O)(=O)c1cccc(F)c1` (stereo unspecified), the cytotoxicity at 70.5 h is -0.541%.

For the molecule `CC(C)(C)c1cc(CN2CCOCC(O)C2)n[nH]1` (stereo unspecified), the cytotoxicity at 70.5 h worked out at 2.49%.

As to `COCc1nccc(C2CCCN(Cc3ccc(C#N)cc3F)C2)n1` (stereo unspecified), the cytotoxicity at 70.5 h is -1.86%.

Take `Cc1ccc(N2CC3(CCN(S(=O)(=O)C4CC4)C3)C2)nn1`: the cytotoxicity at 70.5 h is -5.86%.

`CC(C)c1nc(C(=O)N2CCc3ccccc3C2C(=O)O)cs1` (stereo unspecified): the cytotoxicity at 70.5 h was -2.12%.

Regarding `Cc1cc(CC(=O)N2CCc3cc(Br)sc3C2)n[nH]1`, the cytotoxicity at 70.5 h amounted to 12.5%.

In the case of `Cc1ncc(CNC(CCO)C2CCCCC2)s1` (stereo unspecified), the cytotoxicity at 70.5 h came to 1.31%.

Take `O=S(=O)(c1cccs1)N1Cc2nc(CN3CCCCC3)oc2C1`: the cytotoxicity at 70.5 h was -8.94%.

On to `CC(C)OCCN1CCN(C(=O)c2cc(-n3cccn3)ccn2)CC1`, for which the cytotoxicity at 70.5 h is -4.55%.

For `CC(C)N(C)Cc1nnc2n1CCCN(c1cnccn1)C2`, the cytotoxicity at 70.5 h is -4.42%.

Turning to `CSC(C)CC(=O)N1CCC(n2ccnn2)CC1` (stereo unspecified), the cytotoxicity at 70.5 h was -8.7%.

Regarding `CCN1CCOCC12CCN(C(=O)c1ccsc1)CC2`, the cytotoxicity at 70.5 h is -7.84%.

Take `Cc1ccc(C)c2c(C)c(C(=O)NCCCn3ccnn3)[nH]c12`: the cytotoxicity at 70.5 h is 43.6%.

For the molecule `Cc1cc(C)cc(OCn2ccc(C(=O)O)n2)c1`, the cytotoxicity at 70.5 h was -10.3%.

In the case of `COc1ccccc1OCc1cc(C(=O)N2CC(O)C2)n[nH]1`, the cytotoxicity at 70.5 h is -4.48%.

With `O=C(Cc1ccc2c(c1)OCO2)N1CCN(c2ccncc2)CC1`, the cytotoxicity at 70.5 h was -9.91%.

On to `Cc1cnn(CC2CCCN2C(=O)CCc2c(C)noc2C)c1` (stereo unspecified), for which the cytotoxicity at 70.5 h was 12.1%.

Regarding `Cc1cc(C)c(CNC(=O)NCC2CCCOC2)c(=O)[nH]1` (stereo unspecified), the cytotoxicity at 70.5 h was -11.1%.

Turning to `Nc1cc(N2CCCC(COc3ccc(F)cc3)C2)ncn1` (stereo unspecified), the cytotoxicity at 70.5 h is -12.7%.

Take `Cn1ccc(C(=O)NCc2ccc(CN3CCCC3)cc2)cc1=O`: the cytotoxicity at 70.5 h was -12.4%.

Turning to `CC(Sc1nncn1C)C(=O)NCCCOc1ccc(F)cc1` (stereo unspecified), the cytotoxicity at 70.5 h is -22.5%.

Consider `O=c1[nH]c2csnc2c(=O)n1Cc1ccc(Br)cc1`, for which the cytotoxicity at 70.5 h was -10.2%.

Take `Cc1nc(NCc2ccccc2)cc(C(C)Cn2nc(C)c(C)c2C)n1` (stereo unspecified): the cytotoxicity at 70.5 h is 3.51%.

In the case of `COc1cccc(C(=O)N2CCCC(CNS(C)(=O)=O)C2)c1` (stereo unspecified), the cytotoxicity at 70.5 h was -8.76%.

As to `Cc1cc(C(=O)N2CCn3c(COCC4CCCC4)cnc3C2C)on1` (stereo unspecified), the cytotoxicity at 70.5 h is -15.4%.

Regarding `c1ccc(C2CCCN(c3cncc(-n4cccn4)n3)CC2)cc1` (stereo unspecified), the cytotoxicity at 70.5 h is -9.13%.

Take `COc1ccc(C(=O)N2CCC(C3CCN(c4ncccn4)CC3)C2)o1` (stereo unspecified): the cytotoxicity at 70.5 h stood at 2.75%.

With `COc1cccc(CC(=O)N2CCc3ncnc(NCCO)c3CC2)c1`, the cytotoxicity at 70.5 h was -9.99%.

In the case of `Fc1cccc(CN2CCN(Cc3cscn3)CC2)c1`, the cytotoxicity at 70.5 h is -4.73%.

As for `Cn1ccc2c(C(=O)N3CCCC3c3noc(C4CC4)n3)cccc21` (stereo unspecified), the cytotoxicity at 70.5 h was -1.84%.

For the molecule `Cc1occc1C(=O)N1CCC2(CC1)CN(Cc1nccs1)CCO2`, the cytotoxicity at 70.5 h amounted to 7.01%.

`CN1CCC2(CC1)CN(C(=O)c1onc3ccccc13)CCCN2C`: the cytotoxicity at 70.5 h is 26.8%.

Turning to `CCCC(=O)N(C)Cc1cccc(OC(C)C)c1`, the cytotoxicity at 70.5 h is 9.69%.

Consider `COc1ccc(C(NC(=O)c2cccc[n+]2[O-])C2CC2)cc1` (stereo unspecified), for which the cytotoxicity at 70.5 h is -3.04%.

As for `Cc1nccn1C1(C(=O)O)CCN(Cc2ccc3nsnc3c2)CC1`, the cytotoxicity at 70.5 h was -7%.

In the case of `CCN1CCN(C(=O)COCc2cccc(OC)c2)CC1`, the cytotoxicity at 70.5 h was -6.27%.

As for `CSCCN(C)Cc1ccc(F)cc1C#N`, the cytotoxicity at 70.5 h was -4.74%.

As for `O=C1CN(Cc2nnc(-c3ccccc3Br)o2)CCN1`, the cytotoxicity at 70.5 h is -6.27%.

As for `CCC(=O)N1CCN(C(=O)CCn2cc(Cl)cn2)[C@H]2CS(=O)(=O)C[C@H]21`, the cytotoxicity at 70.5 h was -5.55%.

On to `COc1ccc(NC(=O)CCC2CCCN(S(=O)(=O)C3CC3)C2)c(C)c1` (stereo unspecified), for which the cytotoxicity at 70.5 h is -6.39%.

With `CSC(C)(C)CNC(=O)NC1CCN(CC2CC2)C1` (stereo unspecified), the cytotoxicity at 70.5 h worked out at 15.5%.

Take `CCN1Cc2ccccc2CC2(CCN(C(=O)N(C)C)CC2)C1=O`: the cytotoxicity at 70.5 h was -5.37%.

For `COCCNC(=O)Cc1cnc(-n2cccc2)s1`, the cytotoxicity at 70.5 h is -22.5%.

For `CCN1CC2(CCC1=O)CCN(Cc1nncn1C(C)C)CC2`, the cytotoxicity at 70.5 h is -5.12%.

In the case of `CCc1nc(C2CCCN(C(=O)CCn3ccccc3=O)C2)no1` (stereo unspecified), the cytotoxicity at 70.5 h is -0.684%.

As to `CCOCCCNC(=O)c1cn(CC)nc1C`, the cytotoxicity at 70.5 h is -8.03%.

On to `CCOCC(=O)NCCCn1ccnc1-c1ccccc1`, for which the cytotoxicity at 70.5 h is -7.22%.

For the molecule `COc1ccc(C(=O)N2CCOCC2c2[nH]ncc2C)cc1F` (stereo unspecified), the cytotoxicity at 70.5 h is -3.4%.

On to `COCCNc1ncc(-c2cccc(OC)c2)c(-c2nccn2C)n1`, for which the cytotoxicity at 70.5 h is -7.42%.

As for `Cc1ccc2c(ccn2CCC(=O)N2CCC(C(N)=O)CC2)c1`, the cytotoxicity at 70.5 h was -21.3%.

Take `Fc1cccc(-c2c[nH]c(C3CCCN3)n2)c1` (stereo unspecified): the cytotoxicity at 70.5 h amounted to 0.492%.

For the molecule `CS(=O)(=O)Nc1ccc(CNC(=O)CN2CCc3ccccc32)cc1`, the cytotoxicity at 70.5 h was 7.44%.

Regarding `CN(C)S(=O)(=O)N1C[C@@H]2CC[C@H](C1)N(CCC(=O)NCc1ccco1)C2`, the cytotoxicity at 70.5 h is 2.74%.

As to `Cc1cc(S(=O)(=O)Nc2onc(C)c2C)c(C)s1`, the cytotoxicity at 70.5 h was -3.24%.

Consider `Cc1nc(C)n(CC2CCCN2CC(=O)Nc2cc(C(C)C)no2)n1` (stereo unspecified), for which the cytotoxicity at 70.5 h was -13.1%.

Turning to `CSCC(=O)N1CCCC(c2cc(C)[nH]n2)C1` (stereo unspecified), the cytotoxicity at 70.5 h was -12%.

Turning to `CC(C)(C)c1noc(CCC(=O)N2CCN(Cc3ccc(Cl)s3)CC2)n1`, the cytotoxicity at 70.5 h worked out at 25.8%.

Consider `Fc1ccccc1CN1CCCC(NC2CCOCC2)C1` (stereo unspecified), for which the cytotoxicity at 70.5 h is -9.48%.

For the molecule `Cc1ccc(C(=O)N2CC(C)(C)[C@@](C)(O)C2)cc1N1CCNC1=O`, the cytotoxicity at 70.5 h worked out at 0.84%.
